Reference: US20060160869A1, “Ubiquitin ligase inhibitors” (Rigel Pharmaceuticals, Inc., priority 2005, published 2006)

How the values were obtained:
E2 (Ubch5c) = E2 (Ubch5c) (Homo sapiens, UniProt P61077); experiment: E2 ligase assay, E2 auto-ubiquitination; format: biochemical; settings: Table 2
Procedure: E2 (Ubch5c) auto-ubiquitination was measured as described in U.S. patent application Ser. No. 09/826,312 (Publication No. US-2002-0042083-A1), which is incorporated herein in its entirety. Details of the protocol are described below. Activity in the presence of the test compound was determined relative to a parallel control in which only DMSO was added. The IC50 values were typically determined using 6 or 8 different concentrations of compound, although as few as 2 concentrations may be used to approximate IC50 values.
Corning 96-well plates (Corning 3650) were blocked with 100 μl of Blocking Buffer for 1 hour at room temperature. The plates were washed for 4 times with 225 μl of 1×PBS and 80 μl of the reaction buffer were added that contained 100 ng/well of Flag-ubiquitin. To this, 10 μl of the test compound diluted in DMSO were added. After the test compound was added, 10 μl of E1 (human) and E2 (Ubch5c) in Protein Buffer were added to obtain a final concentration of 5 ng/well of E1 and 20 ng/well of E2. The plates were shaken for 10 minutes and incubated at room temperature for 1 hour. After incubation, the reaction was stopped by adding 25 μl of loading buffer (non-reducing) per well and the plates were heated at 95° C. for 5 minutes. An aliquot of each well was run on a 10% NugePage Gel and analyzed by Western Blot using the antibody mix and Lumino substrate described below. The luminescence was measured using a BMG luminescence microplate reader.

[1] = test system: p53 reporter system in p53 null H1299 cell line; experiment: p53-dependent transcription reporter assay, H1299RE; format: cell-based; settings: p53 −ve cell type; maximal fold induction over DMSO control
Text: (§1) Stable lines of U2OS (osteosarcoma; Wild-type p53 positive), HCT116 (colorectal carcinoma; Wild-type p53 positive) and H1299 (lung non-small cell carcinoma; p53 null) carrying p53-dependent transcriptional regulatory element linked to a Luciferase reporter gene and H1299 carrying a 5′-regulatory region of GADD45 linked to Luciferase were used.
(§2) Day 1: Cells were re-plated into 96-well plates at suitable densities to make 50-60% confluence on Day 2. The plating densities are as follows: 7.5×10^3 cells/well (or 2.5×10^4 cells/cm^2) for U2OS; 1.5×10^4 cells/well (or 5.0×10^4 cells/cm^2) for HCT116; and 1.0×10^4 cells/well (or 3.3×10^4 cells/cm^2) for H1299.
(§3) Day 2: The compounds or control drugs were diluted in dimethyl sulfoxide (DMSO) and added to the wells to create 6-points/2-fold serial dilution (20, 10, 5, 2.5, 1.25, 0.625 and 0 μM) for each compound. The DMSO concentration was adjusted to 0.2% in all wells.
(§4) Day 3: Twenty to 24 hours after compound addition, cells were twice washed with PBS and lysed with Glo-lysis buffer (100 μl/well, Promega; Cat#E2661). Plates were subjected to gentle agitation on a table-top shaker for 5 minutes at room temperature. Fifty μl of lysate was transferred to an assay plate to test for luciferase activity and mixed with 2× assay buffer (Promega; Cat# E1483). The reaction mixture was left at room temperature for 2 minutes and then luminescence was measure by a luminometer (Victor™, 1420 Multilabel Counter, Wallac).
(§5) Data analysis was done on Excel software (Microsoft). Values in Table 4 represent maximal fold induction over negative control (DMSO only) and are the mean of at least duplicate experiments.
H1299RE is p53 null […] cell line containing p53 reporter system. Numbers indicate the selectivity of the compound with smaller number being higher selectivity.

[2] = test system: GADD45 promoter (DNA damage response reporter); experiment: H1299 GADD45 reporter system; format: cell-based; settings: human; p53 −ve cell type; maximal fold induction over DMSO control; read-out: Fold Induction, H1299GADD45
Text: as §1, §2, §3, §4, §5
H1299 GADD45 Reporter System is a system in which GADD45 is induced in p53-null cells in response to DNA damage. This cell line expresses the 5′-regulatory region of the GADD45 gene. This assay provides a way to rule out the possibility of DNA damage due to the compounds.

HCT116 cells = experiment: PAD anti-proliferation assay, HCT; format: cell-based; settings: Homo sapiens, HCT-116, 48 hours
Procedure: (§6) A549 (ATCC# CCL 185), HeLa (ATCC# CCL 2), HCT116 (ATCC# CCL-247), and H 1299 (ATCC# CRL-5803) cells were maintained in T175 flasks following the ATCC recommended media and handling procedures. Flasks reaching approximately 70% confluency were trypsinized and resuspended in RPMI media (Cell Gro catalog number 10 040 CM) modified to contain 5% FBS, 100 ug/mlPen/Strep (Cell Gro catalog number 30 002 CL), and 0.3 mg/ml L Glutamine (Cell Gro catalog number 25 003 CL). A 20,000 cells/ml solution was made for plating. Cells were plated in black Packard 96 well plates by placing 100 μl per well (2,000 cells per well).
(§7) Compounds and additional media were added 24′ hours after cell plating. A compound master plate was created with concentrations 500 times greater than the final concentration added to the cells. All compound testing was done in duplicate using 3 fold dilutions starting with 10 mM. All outside wells (and 4 internal wells) were DMSO controls. Taxol and at least one additional control were run on all plates. Three microliters of the compound master plate were added to deep well blocks containing 750 μl of RPMI media. One hundred microliters were transferred from the compound/media deep well blocks to the plated cells resulting in a 500 fold dilution of the compounds. Cells were grown at 37° C., 5% CO2 for 48 hours.
(§8) Cells to be analyzed by photography were fixed and stained. One hundred microliters of media were removed and 100 μl of 2% paraformaldehyde was added to each well. Plates were left on the benchtop for 45 minutes. A staining solution containing 1.55 μl of 1 mg/ml DAPI added to 18.75 ml PBS was warmed for 15 minutes at 37° C. The cells were aspirated prior to washing with 100 μl of PBS. Seventy microliters of PBS were aspirated and 170 μl of the DAPI solution were added to each well of fixed cells. Plates were left at room temperature for one hour then aspirated and washed twice with 100 μl of PBS. The stained cells were left at 4° C. for a minimum of 16 hours before photographic analysis with Array Scan II (Cellomics). Analysis of the photographic images to determine numbers of live cells (proliferation), apoptotic cells and dead cells, were according to the methods described in U.S. Provisional Patent Application Ser. No. 60/406,714, which incorporated herein in its entirety.

H1299 cells = experiment: PAD anti-proliferation assay, H1299; format: cell-based; settings: Homo sapiens, NCI-H1299, 48 hours
Procedure: as §6, §7, §8

DLD-1 cells = experiment: PAD anti-proliferation assay, DLD-1; format: cell-based; settings: Homo sapiens, 48 hours
E1 and E2 (UBCH5a) = E1 and E2 (UBCH5a) (Homo sapiens, UniProt P22314+P51668); experiment: E1/E2 plate enzyme counter assay; format: biochemical; settings: Table 3, counter assay
Text: E1/E2 is E1 and E2 (UBCH5a) enzyme counter assay.

E2 (Ubch5c), sequence (P61077 whole entry): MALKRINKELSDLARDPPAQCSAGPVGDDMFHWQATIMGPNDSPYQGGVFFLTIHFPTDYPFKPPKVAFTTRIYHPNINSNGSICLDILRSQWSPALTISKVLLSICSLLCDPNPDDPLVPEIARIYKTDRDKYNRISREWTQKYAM

| Structure (SMILES) | IC50 (E2 (Ubch5c)) [µM] | Fold Induction of p53 activity, H1299RE [1] | fold induction [2] | IC50 (HCT116 cells) [µM] | IC50 (H1299 cells) [µM] | IC50 (DLD-1 cells) [µM] | E1/E2 plate μM (E1 and E2 (UBCH5a)) |
| --- | --- | --- | --- | --- | --- | --- | --- |
| COc1cccc(-c2csc(N(Cc3ccc(C(=O)N4CCNCC4)cc3)Cc3cccc(OC(F)(F)F)c3)n2)c1 [compound 351] | ≥ 20 | c (c means 1.5 or less) | ≤ 1.5 | 1 to 20 | 1 to 20 |  |  |
| COc1cccc(-c2csc(N(CCOc3ccccc3)Cc3ccc(C(=O)N4CCNCC4)cc3)n2)c1 [compound 352] | ≥ 20 | c (c means 1.5 or less) | ≤ 1.5 |  | 1 to 20 |  |  |
| COc1cccc(CN(Cc2ccc(C(=O)N3CCNCC3)cc2)c2nc(-c3ccc(Br)cc3)cs2)c1OC [compound 353] | ≥ 20 | c (c means 1.5 or less) | ≤ 1.5 | 1 to 20 | 1 to 20 |  |  |
| O=C(c1ccc(CN(Cc2cccc(OC(F)(F)F)c2)c2nc(-c3ccc4ccccc4c3)cs2)cc1)N1CCNCC1 [compound 282, 4-(2-naphthyl)-N-[4-(piperazin-1-ylcarbonyl)benzyl]-N-[3-(trifluoromethoxy)benzyl]-1,3-thiazol-2-amine] |  |  |  | 1 to 20 | 1 to 20 | 1 to 20 |  |
| O=C(c1ccc(CN(CCOc2ccccc2)c2nc(-c3ccc(Cl)c(Cl)c3)cs2)cc1)N1CCNCC1 [compound 360] | ≥ 20 | c (c means 1.5 or less) | ≤ 1.5 | 1 to 20 | 1 to 20 | 1 to 20 | + (+ means 20 μM or greater) |
| O=C(c1ccc(CN(Cc2cccc(OC(F)(F)F)c2)c2nc(-c3ccccc3)cs2)cc1)N1CCNCC1 [compound 275] |  |  |  | 1 to 20 | 1 to 20 | 1 to 20 |  |
